For one test, the target named is T1, BRAF G466V (Homo sapiens, UniProt P15056, G466V).
T1 construct: expressed in transfected cells
The experiment in a line: Cellular assay of target protein degradation, T-Rex 293 cells stably transfected with HA-BRAF G466V (HA immunofluorescence, high content imaging). It is filed as cell-based. Conditions: T-Rex 293 HA-BRAF G466V; for DC50: half maximal degradation, read-out: BRaf G466V DC50; for Dmax: maximum degradation observed. How it is done:
Protocol for a cellular assay of target protein degradation (T-Rex 293 cells). T-Rex 293 cells were purchased from Invitrogen (#R71007), and stably transfected with a pcDNA4/TO_HA-BRAF G466V construct, using 400 ug Zeocin for selection. G466V cells are plated in Dulbecco's Modified Eagle Medium (DMEM; Gibco #11965118) containing 10% fetal bovine serum (FBS; Gibco #16000044) and 0.75 ng/mL doxycycline (Selleckchem #4163) at a density of 5,000 cells/well in 50 μl on poly-D-lysine (PDL) coated, black clear bottom 96-well plates (Corning #354640) and incubated for 24 hours at 37° C. with 5% CO2. The following day 50 ul of tested compound was added at 2x concentration in DMEM with a final concentration ranging from 30 nM to 3 pM in 0.1% dimethylsulfoxide (DMSO), and incubated for 24 hours at 37° C. with 5% CO2. At the end of the experimental treatment, the media was flicked off and cells washed once with phosphate-buffered saline (PBS)++ (PBS with CaCl and MgCl) and gently replacing with 200 μl PBS++ per well. The PBS++ was removed and 50 uL 4% paraformaldehyde (PFA; EMS #15710) in PBS++ was added, and incubate at room temperature for 15 minutes. Cells were washed once with PBS++ and 50 uL 0.1% Triton X-100 (Fisher #BP151-500) in PBS++ was added. Plate was incubate for 5 minutes at room temperature. Cells were was once with PBS++. Cells were blocked with 100 uL Licor blocking buffer (Licor #927-50000) for 1 hour at room temperature. Next, 50 uL of HA antibody (CST #3724) at 1:1000 in Licor blocking buffer was added, and the plate incubate overnight at 4° C. The plates were parafilmed to prevent evaporation. Plate was washed three times with 200 uL PBS++. Fifty microliters of HCS secondary antibody solution [1:1000 Hoechst (Invitrogen #H3570), 1:1000 phalloidin (Invitrogen #A22287) and 1:5000 Alexa fluor (Invitrogen #A11008)] was added and incubated for 1 hour. Plate was wash three times with 200 uL PBS++, and imaged on a high content reader (ImageXpress Micro XLS, Molecular Devices).
(§1) The concentration of exemplary compound that leads to half maximal degradation (DC50) as well as the maximum degradation observed (Dmax, conventionally expressed as a percentage of control), which are below in Table 2 for the exemplary compounds of Table 1.

A further test addresses T2, BRAF V600E (Homo sapiens, UniProt P15056, V600E).
T2 construct: expressed in transfected cells
Put plainly: Cellular assay of target protein degradation, T-Rex 293 cells stably transfected with HA-BRAF_V600E (HA immunofluorescence, high content imaging). Conditions: T-Rex 293 HA-BRAF V600E; for DC50: half maximal degradation, read-out: BRaf V600E DC50; for Dmax: maximum degradation observed. Format: cell-based. How it is done: Protocol for a cellular assay of target protein degradation (T-Rex 293 cells). T-Rex 293 cells were purchased from Invitrogen (#R71007), and stably transfected with a pcDNA4/TO_HA-BRAF_V600E construct, using 400 ug Zeocin for selection. V600e cells are plated in Dulbecco's Modified Eagle Medium (DMEM; Gibco #11965118) containing 10% fetal bovine serum (FBS; Gibco #16000044) and 1 ng/mL doxycycline (Selleckchem #4163) at a density of 5,000 cells/well in 50 μl on poly-D-lysine (PDL) coated, black clear bottom 96-well plates (Corning #354640) and incubated for 24 hours at 37° C. with 5% C02. The following day 50 ul of tested compound was added at 2x concentration in DMEM with a final concentration ranging from 1 μM to 0.1 nM in 0.1% dimethylsulfoxide (DMSO), and incubated for 24 hours at 37° C. with 5% CO2. At the end of the experimental treatment, the media was flicked off and cells washed once with phosphate-buffered saline (PBS)++ (PBS with CaCl and MgCl) and gently replacing with 200 μl PBS++ per well. The PBS++ was removed and 50 uL 4% paraformaldehyde (PFA; EMS #15710) in PBS++ was added, and incubate at room temperature for 15 minutes. Cells were washed once with PBS++ and 50 uL 0.1% Triton X-100 (Fisher #BP151-500) in PBS++ was added. Plate was incubate for 5 minutes at room temperature. Cells were was once with PBS++. Cells were blocked with 100 uL Licor blocking buffer (Licor #927-50000) for 1 hour at room temperature. Next, 50 uL of HA antibody (CST #3724) at 1:1000 in Licor blocking buffer was added, and the plate incubate overnight at 4° C. The plates were parafilmed to prevent evaporation. Plate was washed three times with 200 uL PBS++. Fifty microliters of HCS secondary antibody solution [1:1000 Hoechst (Invitrogen #H3570), 1:1000 phalloidin (Invitrogen #A22287) and 1:5000 Alexa fluor (Invitrogen #A11008)] was added and incubated for 1 hour. Plate was wash three times with 200 uL PBS++, and imaged on a high content reader (ImageXpress Micro XLS, Molecular Devices).
as §1

This passage reports DC50 and Dmax results from US12180193B2, “Accelerating fibrosarcoma protein degrading compounds and associated methods of use” (Arvinas Operations, Inc., priority 2020, dated 2024).

T1 sequence (P15056 whole entry G466V): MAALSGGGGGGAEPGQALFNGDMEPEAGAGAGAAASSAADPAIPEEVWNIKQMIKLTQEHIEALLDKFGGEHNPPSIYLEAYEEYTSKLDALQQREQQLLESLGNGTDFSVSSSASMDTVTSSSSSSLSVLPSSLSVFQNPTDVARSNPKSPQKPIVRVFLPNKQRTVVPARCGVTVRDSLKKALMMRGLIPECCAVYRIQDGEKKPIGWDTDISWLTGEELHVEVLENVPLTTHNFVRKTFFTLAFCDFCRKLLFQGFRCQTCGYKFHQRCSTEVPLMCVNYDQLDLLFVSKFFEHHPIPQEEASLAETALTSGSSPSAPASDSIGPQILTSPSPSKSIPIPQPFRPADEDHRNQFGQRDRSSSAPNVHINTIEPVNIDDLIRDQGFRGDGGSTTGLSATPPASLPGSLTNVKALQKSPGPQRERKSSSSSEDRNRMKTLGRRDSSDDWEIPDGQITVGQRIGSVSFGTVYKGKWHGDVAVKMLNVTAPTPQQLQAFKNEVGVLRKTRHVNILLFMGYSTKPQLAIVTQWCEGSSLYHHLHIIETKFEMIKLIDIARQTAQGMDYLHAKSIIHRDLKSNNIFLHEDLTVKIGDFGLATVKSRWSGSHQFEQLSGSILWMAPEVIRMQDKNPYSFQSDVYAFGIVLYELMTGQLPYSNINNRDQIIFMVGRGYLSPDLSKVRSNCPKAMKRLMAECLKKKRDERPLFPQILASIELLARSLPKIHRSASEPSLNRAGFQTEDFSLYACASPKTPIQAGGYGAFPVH
T2 sequence (P15056 whole entry V600E): as the sequence (P15056 whole entry G466V) above, with V466G, V600E counted along it

Regarding `COc1cc([C@@H](O)CCN2CCN(c3ccc(-c4cnc5[nH]cc(C(=O)c6c(F)ccc(NS(=O)(=O)N7CC[C@@H](F)C7)c6F)c5c4)cc3)CC2)cc2c1C(=O)N([C@H]1CCC(=O)NC1=O)C2` (stereo in doubt) [Compound 295, (3R)-N-{3-[5-(4-{4-[(3S)-3-{2-[(3S)-2,6-dioxopiperidin-3-yl]-7-methoxy-1-oxo-2,3-dihydro-1H-isoindol-5-yl}-3-hydroxypropyl]piperazin-1-yl}phenyl)-1-pyrrolo[2,3-b]pyridine-3-carbonyl]-2,4-difluorophenyl}-3-fluoropyrrolidine-1-sulfonamide], at BRAF G466V, the DC50 lay within 1 to 10 nM and the greatest degradation seen (Dmax) lay in the range of 35 to 70%. In addition, on BRAF V600E, the 50% degradation concentration (DC50) is 50 to 500 nM and the maximal degradation (Dmax) fell in the range of 35 to 70%.
With `O=C1CCC(N2Cc3cc(N4CC5(CC(Oc6ccc(-c7cnc8[nH]cc(C(=O)c9c(F)ccc(NS(=O)(=O)N%10CC[C@@H](F)C%10)c9F)c8c7)cc6)C5)C4)ccc3C2=O)C(=O)N1` (stereo partly drawn) [Compound 1, (3R)-N-(3-{5-[4-({2-[2-(2,6-dioxopiperidin-3-yl)-1-oxo-2,3-dihydro-1H-isoindol-5-yl]-2-azaspiro[3.3]heptan-6-yl}oxy)phenyl]-1H-pyrrolo[2,3-b]pyridine-3-carbonyl}-2,4-difluorophenyl)-3-fluoropyrrolidine-1-sulfonamide], at BRAF G466V, the 50% degradation concentration (DC50) was in the range of 1 to 10 nM and the greatest degradation seen (Dmax) lay within 35 to 70%. Moreover, on BRAF V600E, the 50% degradation concentration (DC50) lay in the range of 5 to 50 nM and the Dmax was 35 to 70%.
For the compound `C[C@@]12CN(CC3CCN(c4ccc5c(c4)CN(C4CCC(=O)NC4=O)C5=O)CC3)C[C@]1(C)CN(c1ccc(-c3cnc4[nH]cc(C(=O)c5c(F)ccc(NS(=O)(=O)N6CC[C@@H](F)C6)c5F)c4c3)cc1)C2` (stereo partly drawn) [Compound 2, (3R)-N-[3-(5-{4-[(3aR,6aS)-5-({1-[2-(2,6-dioxopiperidin-3-yl)-1-oxo-2,3-dihydro-1H-isoindol-5-yl]piperidin-4-yl}methyl)-3a,6a-dimethyl-octahydropyrrolo[3,4-c]pyrrol-2-yl]phenyl}-1H-pyrrolo[2,3-b]pyridine-3-carbonyl)-2,4-difluorophenyl]-3-fluoropyrrolidine-1-sulfonamide], at BRAF G466V, the 50% degradation concentration (DC50) was 10 to 30 nM and the Dmax is 35 to 70%. Further, at BRAF V600E, the DC50 is 5 to 50 nM and the Dmax was 35 to 70%.
Consider `O=C1CCC(N2Cc3cc(N4CCC(CN5C[C@H]6CCN(c7ccc(-c8cnc9[nH]cc(C(=O)c%10c(F)ccc(NS(=O)(=O)N%11CC[C@@H](F)C%11)c%10F)c9c8)cc7)C[C@H]6C5)CC4)ccc3C2=O)C(=O)N1` (stereo partly drawn) [Compound 3, (3R)-N-[3-(5-{4-[(3aR,7aS)-2-({1-[2-(2,6-dioxopiperidin-3-yl)-1-oxo-2,3-dihydro-1H-isoindol-5-yl)piperidin-4-yl}methyl)-octahydro-1H-pyrrolo[3,4-c]pyridin-5-yl]phenyl}-1H-pyrrolo[2,3-b]pyridine-3-carbonyl)-2,4-difluorophenyl]-3-fluoropyrrolidine-1-sulfonamide], for which the DC50 was 1 to 10 nM on BRAF G466V and 5 to 50 nM on BRAF V600E. The Dmax is above 70% on BRAF G466V and 35 to 70% on BRAF V600E.
Turning to `O=C1CCC(N2Cc3cc(N4CC5(CCN(CC#Cc6ccc(-c7cnc8[nH]cc(C(=O)c9c(F)ccc(NS(=O)(=O)N%10CC[C@@H](F)C%10)c9F)c8c7)cc6)C5)C4)ccc3C2=O)C(=O)N1` (stereo partly drawn) [Compound 4, (3R)-N-(3-{5-[4-(3-{2-[2-(2,6-dioxopiperidin-3-yl)-1-oxo-2,3-dihydro-1H-isoindol-5-yl]-2,6-diazaspiro[3.4]octan-6-yl}prop-1-yn-1-yl)phenyl]-1H-pyrrolo [2,3-b]pyridine-3-carbonyl}-2,4-difluorophenyl)-3-fluoropyrrolidine-1-sulfonamide], the DC50 at BRAF G466V is 1 to 10 nM; on BRAF V600E, 50 to 500 nM. Further, the Dmax at BRAF G466V is 35 to 70%; at BRAF V600E, below 35%.
`O=C1CCC(N2Cc3cc(N4CC(N5C[C@H]6C[C@@H]5CN6c5ccc(-c6cnc7[nH]cc(C(=O)c8c(F)ccc(NS(=O)(=O)N9CC[C@@H](F)C9)c8F)c7c6)cc5)C4)ccc3C2=O)C(=O)N1` (stereo partly drawn) [Compound 5, (3R)-N-[3-(5-{4-[(1R,4R)-5-{1-[2-(2,6-dioxopiperidin-3-yl)-1-oxo-2,3-dihydro-1H-isoindol-5-yl]azetidin-3-yl}-2,5-diazabicyclo[2.2.1]heptan-2-yl]phenyl}-1H-pyrrolo[2,3-b]pyridine-3-carbonyl)-2,4-difluorophenyl]-3-fluoropyrrolidine-1-sulfonamide]: the DC50 is 1 to 10 nM at BRAF G466V and above 500 nM at BRAF V600E. In addition, the maximal degradation (Dmax) on BRAF G466V was 35 to 70%.
Take `COc1cc(N2CCC(CN3CCC4(CC3)CCN(c3ccc(-c5cnc6[nH]cc(C(=O)c7c(F)ccc(NS(=O)(=O)N8CC[C@@H](F)C8)c7F)c6c5)cc3)CC4)CC2)cc2c1C(=O)N(C1CCC(=O)NC1=O)C2` (stereo partly drawn) [Compound 6, (3R)-N-[3-(5-{4-[9-({1-[2-(2,6-dioxopiperidin-3-yl)-7-methoxy-1-oxo-2,3-dihydro-1H-isoindol-5-yl]piperidin-4-yl}methyl)-3,9-diazaspiro[5.5]undecan-3-yl]phenyl}-1H-pyrrolo[2,3-b]pyridine-3-carbonyl)-2,4-difluorophenyl]-3-fluoropyrrolidine-1-sulfonamide]: at BRAF G466V, the 50% degradation concentration (DC50) is 1 to 10 nM and the Dmax lay within 35 to 70%. Besides, at BRAF V600E, the half-maximal degradation concentration (DC50) is below 5 nM and the Dmax lay within 35 to 70%.
On to `O=C1CCC(N2Cc3cc(N4CC(CN5CCC(c6ccc(-c7cnc8[nH]cc(C(=O)c9c(F)ccc(NS(=O)(=O)N%10CC[C@@H](F)C%10)c9F)c8c7)cc6)CC5)C4)ccc3C2=O)C(=O)N1` (stereo partly drawn) [Compound 7, (3R)-N-[3-(5-{4-[1-({1-[2-(2,6-dioxopiperidin-3-yl)-1-oxo-2,3-dihydro-1H-isoindol-5-yl]azetidin-3-yl}methyl)piperidin-4-yl]phenyl}-1H-pyrrolo[2,3-b]pyridine-3-carbonyl)-2,4-difluorophenyl]-3-fluoropyrrolidine-1-sulfonamide], for which, on BRAF G466V, the DC50 was in the range of 1 to 10 nM and the greatest degradation seen (Dmax) was above 70%. Further, on BRAF V600E, the half-maximal degradation concentration (DC50) lay within 5 to 50 nM and the Dmax was in the range of 35 to 70%.
`O=C1CCC(N2Cc3cc(N4CCC(CN5CCC6(CCN(c7ncc(-c8cnc9[nH]cc(C(=O)c%10c(F)ccc(NS(=O)(=O)N%11CC[C@@H](F)C%11)c%10F)c9c8)cn7)CC6)C5)CC4)ccc3C2=O)C(=O)N1` (stereo partly drawn) [Compound 96, (3R)-N-[3-(5-{2-[2-({1-[2-(2,6-dioxopiperidin-3-yl)-1-oxo-2,3-dihydro-1H-isoindol-5-yl]piperidin-4-yl}methyl)-2,8-diazaspiro[4.5]decan-8-yl]pyrimidin-5-yl}-1H-pyrrolo[2,3-b]pyridine-3-carbonyl)-2,4-difluorophenyl]-3-fluoropyrrolidine-1-sulfonamide]: on BRAF V600E, the half-maximal degradation concentration (DC50) was below 5 nM and the Dmax was below 35%.

A word on the DC50: it is the concentration at which degradation of the target reaches its halfway point. By Dmax is commonly meant the greatest extent of degradation seen.
